# Laboratory results reported in patent US20260263459A1, “PHTHALAZINONE GSPT1 PROTEIN DEGRADING AGENT AND USE THEREOF” (CHINA PHARMACEUTICAL UNIVERSITY, priority 2023, published 2026).
# Experiments:
# KG-1 cells = test: Antiproliferative activity against KG-1 cells (CCK8); format: cell-based; conditions: Homo sapiens, 72 h incubation, CCK8 method
# Description: KG-1 cells in the logarithmic growth phase were diluted in a culture medium (RPMI+10% FBS) and plated onto 96-well plates at 5000 cells/well, and the plates were incubated in an incubator at 37° C. with 5% CO2 for 24 h. 10 mM stock solutions of the test compounds of the present disclosure in DMSO were prepared and diluted with the culture medium to set 9 concentration gradients. 3 replicate wells were set for each concentration. After compound addition, the plates were incubated in an incubator at 37° C. with 5% CO2 for 72 h. The cell proliferation was assessed using the CCK8 method. The cell growth inhibition IC50 values of the compounds were determined using an enzyme labeling method. The IC50 values were calculated using GraphPad Prism 7 software.
# The antiproliferative activity of the compounds against KG-1 cells is shown in Table 2, where A represents IC50≤30 nM, B represents 30<IC50≤300 nM, and C represents IC50>300 nM.
# GSPT1 protein = molecular target: T1, GSPT1 protein (Homo sapiens, UniProt P15170+Q96SW2); test: Degradation of GSPT1 in KG-1 cells (Western blot); format: cell-based; conditions: compound concentration 200 nM, 4 h incubation
# T1 construct: Whole cell lysates were prepared; endogenous in cells; host or cells: KG-1 cells
# Description: KG-1 cells were grown in an IMDM culture medium (containing 20% FBS). After centrifugation and counting, the cell concentration was adjusted. The cells were plated onto 6-well plates at 10^6 cells/well, with 1350 μL per well. 150 μL of DMSO and the test compounds of the present disclosure (compound concentration: 200 nM) were added. The plates were incubated in an incubator at 37° C. with 5% CO2 for 4 h. The cells were centrifuged, and the culture medium was discarded. PBS was added to wash the cells and then discarded. Whole cell lysates were prepared using a protease inhibitor cocktail (100×, Fude Biological), a protein phosphatase inhibitor cocktail (100×, Fude Biological), Super Nuclease (Beyotime), and a high-intensity RIPA lysis buffer (Thermo Fisher) and placed on ice for 30 min. After centrifugation, the cell debris precipitates were discarded, and the whole cell lysate supernatants were collected and transferred to new centrifuge tubes. After a BCA protein assay, samples were prepared using a 5× loading buffer (Thermo Fisher). The samples were subjected to protein electrophoresis separation in a 4-20% precast gel (SDS-PAGE gel), transferred to a PVDF membrane, blocked with 5% NFDM/TBST at room temperature for 1 h, incubated overnight with primary antibodies at 4° C., and incubated with a secondary antibody at room temperature for 2 h the next day. Signals were detected using a MINICHEMITM imaging system.
# • Anti-GSPT1: Abcam ab234433 • Anti-beta actin: Fude Biological FD0060
# • Anti-rabbit peroxidase-linked secondary antibody: Fude Biological FDG007
# The degradation effects of the compounds on GSPT1 protein are shown in Table 1, where A represents a GSPT1 protein degradation percentage of no less than 70%, B represents a degradation percentage of less than 70% but no less than 30%, and C represents a degradation percentage of less than 30%.
# T1 sequence (P15170 whole entry): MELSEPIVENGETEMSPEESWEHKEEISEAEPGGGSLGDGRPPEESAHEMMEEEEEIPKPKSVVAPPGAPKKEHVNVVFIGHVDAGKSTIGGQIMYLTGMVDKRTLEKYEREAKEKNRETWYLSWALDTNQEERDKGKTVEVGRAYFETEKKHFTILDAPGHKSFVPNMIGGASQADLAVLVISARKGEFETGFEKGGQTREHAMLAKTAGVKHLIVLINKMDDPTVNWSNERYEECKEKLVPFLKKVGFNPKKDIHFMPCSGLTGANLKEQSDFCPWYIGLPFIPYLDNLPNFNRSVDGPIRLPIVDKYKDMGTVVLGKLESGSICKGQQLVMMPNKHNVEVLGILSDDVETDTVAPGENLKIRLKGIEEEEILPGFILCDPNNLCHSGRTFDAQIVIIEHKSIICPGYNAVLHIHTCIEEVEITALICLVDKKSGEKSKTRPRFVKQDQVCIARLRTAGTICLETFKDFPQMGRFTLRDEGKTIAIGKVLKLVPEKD
# T1 sequence (Q96SW2 whole entry): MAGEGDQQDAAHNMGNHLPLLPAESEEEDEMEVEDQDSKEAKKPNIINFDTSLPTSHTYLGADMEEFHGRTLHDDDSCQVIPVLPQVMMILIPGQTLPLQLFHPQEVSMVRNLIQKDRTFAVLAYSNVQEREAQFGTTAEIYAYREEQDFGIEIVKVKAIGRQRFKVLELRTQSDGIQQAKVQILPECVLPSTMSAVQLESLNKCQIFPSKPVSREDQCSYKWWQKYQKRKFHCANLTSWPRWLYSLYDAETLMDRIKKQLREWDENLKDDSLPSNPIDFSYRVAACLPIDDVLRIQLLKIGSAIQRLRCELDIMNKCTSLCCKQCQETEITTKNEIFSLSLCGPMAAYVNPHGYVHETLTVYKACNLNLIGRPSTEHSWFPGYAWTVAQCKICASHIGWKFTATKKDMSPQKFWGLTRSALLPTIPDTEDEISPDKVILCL
# T1 sequence (Q16531 whole entry partner): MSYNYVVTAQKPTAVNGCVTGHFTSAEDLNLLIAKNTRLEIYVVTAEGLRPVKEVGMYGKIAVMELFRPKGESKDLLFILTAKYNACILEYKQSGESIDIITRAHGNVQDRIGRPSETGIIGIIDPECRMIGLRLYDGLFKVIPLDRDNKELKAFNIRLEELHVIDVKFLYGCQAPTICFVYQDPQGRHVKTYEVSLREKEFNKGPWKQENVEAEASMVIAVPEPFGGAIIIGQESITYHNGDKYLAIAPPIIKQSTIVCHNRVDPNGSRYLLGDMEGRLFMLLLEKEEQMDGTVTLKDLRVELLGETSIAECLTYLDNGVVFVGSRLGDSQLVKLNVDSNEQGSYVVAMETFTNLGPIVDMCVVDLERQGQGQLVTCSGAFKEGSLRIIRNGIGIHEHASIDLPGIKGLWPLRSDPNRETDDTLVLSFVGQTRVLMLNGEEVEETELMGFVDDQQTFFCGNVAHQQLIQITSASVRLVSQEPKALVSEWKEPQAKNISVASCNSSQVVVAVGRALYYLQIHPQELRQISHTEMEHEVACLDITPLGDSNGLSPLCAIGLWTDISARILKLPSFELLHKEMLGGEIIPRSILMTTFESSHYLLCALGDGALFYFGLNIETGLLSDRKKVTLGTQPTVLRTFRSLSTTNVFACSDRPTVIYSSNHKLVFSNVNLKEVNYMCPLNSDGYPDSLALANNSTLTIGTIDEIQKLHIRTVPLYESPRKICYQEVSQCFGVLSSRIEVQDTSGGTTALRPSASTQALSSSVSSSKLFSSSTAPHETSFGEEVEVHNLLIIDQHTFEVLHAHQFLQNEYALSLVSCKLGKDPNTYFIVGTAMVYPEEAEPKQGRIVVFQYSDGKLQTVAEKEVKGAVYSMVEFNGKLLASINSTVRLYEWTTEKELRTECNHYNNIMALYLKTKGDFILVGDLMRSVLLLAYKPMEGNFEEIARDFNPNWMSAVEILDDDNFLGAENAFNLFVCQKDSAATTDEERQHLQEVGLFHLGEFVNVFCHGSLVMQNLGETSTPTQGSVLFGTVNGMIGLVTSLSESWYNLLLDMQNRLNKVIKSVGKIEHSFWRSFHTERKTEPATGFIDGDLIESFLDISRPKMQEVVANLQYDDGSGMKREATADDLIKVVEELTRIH
SMILES,inhibition at 0.2 µM (GSPT1 protein) [%],IC50 (KG-1 cells) [nM]
"O=C1CCC(n2ncc3cc(CNC(=O)C4=Cc5c(F)cccc5OC4)ccc3c2=O)C(=O)N1 (stereo not drawn) [Compound T-2, N-((2-(2,6-Dioxopiperidin-3-yl)-1-oxo-1,2-dihydrophthalazin-6-yl)methyl)-5-fluoro-2H-chromene-3-carboxamide]",≥ 70,≤ 30
"O=C1CCC(n2ncc3cc(CNC(=O)C4=Cc5cccc(F)c5OC4)ccc3c2=O)C(=O)N1 (stereo not drawn) [Compound T-5, N-((2-(2,6-Dioxopiperidin-3-yl)-1-oxo-1,2-dihydrophthalazin-6-yl)methyl)-8-fluoro-2H-chromene-3-carboxamide]",30 to 70,≤ 30
"O=C1CCC(n2ncc3cc(CNC(=O)C4=Cc5cccc(OC(F)(F)F)c5OC4)ccc3c2=O)C(=O)N1 (stereo not drawn) [Compound T-9, N-((2-(2,6-Dioxopiperidin-3-yl)-1-oxo-1,2-dihydrophthalazin-6-yl)methyl)-8-(trifluoromethoxy)-2H-chromene-3-carboxamide]",30 to 70,≤ 30
"O=C1CCC(n2ncc3cc(CNC(=O)C4=Cc5cc(OC(F)(F)F)ccc5OC4)ccc3c2=O)C(=O)N1 (stereo not drawn) [Compound T-10, N-((2-(2,6-Dioxopiperidin-3-yl)-1-oxo-1,2-dihydrophthalazin-6-yl)methyl)-6-(trifluoromethoxy)-2H-chromene-3-carboxamide]",≥ 70,≤ 30
"Cc1ccc2c(c1)C=C(C(=O)NCc1ccc3c(=O)n(C4CCC(=O)NC4=O)ncc3c1)CO2 (stereo not drawn) [Compound T-12, N-((2-(2,6-Dioxopiperidin-3-yl)-1-oxo-1,2-dihydrophthalazin-6-yl)methyl)-6-methyl-2H-chromene-3-carboxamide]",30 to 70,30 to 300
"O=C1CCC(n2ncc3cc(CNC(=O)C4=Cc5cc(Br)ccc5OC4)ccc3c2=O)C(=O)N1 (stereo not drawn) [Compound T-14, 6-Bromo-N-((2-(2,6-dioxopiperidin-3-yl)-1-oxo-1,2-dihydrophthalazin-6-yl)methyl)-2H-chromene-3-carboxamide]",30 to 70,30 to 300
"O=C1CCC(n2ncc3cc(CNC(=O)C4=Cc5c(cccc5C(F)(F)F)OC4)ccc3c2=O)C(=O)N1 (stereo not drawn) [Compound T-15, N-((2-(2,6-Dioxopiperidin-3-yl)-1-oxo-1,2-dihydrophthalazin-6-yl)methyl)-5-(trifluoromethyl)-2H-chromene-3-carboxamide]",≥ 70,≤ 30
"Cc1cc2c(cc1Cl)C=C(C(=O)NCc1ccc3c(=O)n(C4CCC(=O)NC4=O)ncc3c1)CO2 (stereo not drawn) [Compound T-20, 6-Chloro-N-((2-(2,6-dioxopiperidin-3-yl)-1-oxo-1,2-dihydrophthalazin-6-yl)methyl)-7-methyl-2H-chromene-3-carboxamide]",30 to 70,30 to 300
"O=C1CCC(n2ncc3cc(CNC(=O)C4COc5ccccc5C4)ccc3c2=O)C(=O)N1 (stereo not drawn) [Compound T-21, N-((2-(2,6-Dioxopiperidin-3-yl)-1-oxo-1,2-dihydrophthalazin-6-yl)methyl) chromane-3-carboxamide]",30 to 70,30 to 300
"O=C1CCC(n2ncc3cc(CNC(=O)C4COc5ccc(F)cc5C4)ccc3c2=O)C(=O)N1 (stereo not drawn) [Compound T-22, N-((2-(2,6-Dioxopiperidin-3-yl)-1-oxo-1,2-dihydrophthalazin-6-yl)methyl)-6-fluorochromane-3-carboxamide]",30 to 70,≤ 30
"O=C1CCC(n2ncc3cc(CNC(=O)C4CNc5ccccc5C4)ccc3c2=O)C(=O)N1 (stereo not drawn) [Compound T-24, N-((2-(2,6-Dioxopiperidin-3-yl)-1-oxo-1,2-dihydrophthalazin-6-yl)methyl)-1,2,3,4-tetrahydroquinoline-3-carboxamide]",≥ 70,30 to 300

# Second part, led by results:
inhibition at 0.2 µM (GSPT1 protein) [%],SMILES,IC50 (KG-1 cells) [nM]
30 to 70,"O=C1CCC(n2ncc3cc(CNC(=O)C4=Cc5ccccc5OC4)ccc3c2=O)C(=O)N1 (stereo not drawn) [Compound T-1, N-((2-(2,6-Dioxopiperidin-3-yl)-1-oxo-1,2-dihydrophthalazin-6-yl)methyl)-2H-chromene-3-carboxamide]",30 to 300
30 to 70,"O=C1CCC(n2ncc3cc(CNC(=O)C4=Cc5cc(F)ccc5OC4)ccc3c2=O)C(=O)N1 (stereo not drawn) [Compound T-3, N-((2-(2,6-Dioxopiperidin-3-yl)-1-oxo-1,2-dihydrophthalazin-6-yl)methyl)-6-fluoro-2H-chromene-3-carboxamide]",30 to 300
30 to 70,"O=C1CCC(n2ncc3cc(CNC(=O)C4=Cc5ccc(F)cc5OC4)ccc3c2=O)C(=O)N1 (stereo not drawn) [Compound T-4, N-((2-(2,6-Dioxopiperidin-3-yl)-1-oxo-1,2-dihydrophthalazin-6-yl)methyl)-7-fluoro-2H-chromene-3-carboxamide]",30 to 300
30 to 70,"COc1cccc2c1OCC(C(=O)NCc1ccc3c(=O)n(C4CCC(=O)NC4=O)ncc3c1)=C2 (stereo not drawn) [Compound T-6, N-((2-(2,6-Dioxopiperidin-3-yl)-1-oxo-1,2-dihydrophthalazin-6-yl)methyl)-8-methoxy-2H-chromene-3-carboxamide]",30 to 300
≥ 70,"COc1cccc2c1C=C(C(=O)NCc1ccc3c(=O)n(C4CCC(=O)NC4=O)ncc3c1)CO2 (stereo not drawn) [Compound T-7, N-((2-(2,6-Dioxopiperidin-3-yl)-1-oxo-1,2-dihydrophthalazin-6-yl)methyl)-5-methoxy-2H-chromene-3-carboxamide]",≤ 30
30 to 70,"COc1ccc2c(c1)C=C(C(=O)NCc1ccc3c(=O)n(C4CCC(=O)NC4=O)ncc3c1)CO2 (stereo not drawn) [Compound T-8, N-((2-(2,6-Dioxopiperidin-3-yl)-1-oxo-1,2-dihydrophthalazin-6-yl)methyl)-6-methoxy-2H-chromene-3-carboxamide]",30 to 300
30 to 70,"Cc1cccc2c1OCC(C(=O)NCc1ccc3c(=O)n(C4CCC(=O)NC4=O)ncc3c1)=C2 (stereo not drawn) [Compound T-11, N-((2-(2,6-Dioxopiperidin-3-yl)-1-oxo-1,2-dihydrophthalazin-6-yl)methyl)-8-methyl-2H-chromene-3-carboxamide]",30 to 300
30 to 70,"O=C1CCC(n2ncc3cc(CNC(=O)C4=Cc5cc(Cl)ccc5OC4)ccc3c2=O)C(=O)N1 (stereo not drawn) [Compound T-13, 6-Chloro-N-((2-(2,6-dioxopiperidin-3-yl)-1-oxo-1,2-dihydrophthalazin-6-yl)methyl)-2H-chromene-3-carboxamide]",30 to 300
< 30,"C=Cc1ccc2c(c1)C=C(C(=O)NCc1ccc3c(=O)n(C4CCC(=O)NC4=O)ncc3c1)CO2 (stereo not drawn) [Compound T-16, N-((2-(2,6-Dioxopiperidin-3-yl)-1-oxo-1,2-dihydrophthalazin-6-yl)methyl)-6-vinyl-2H-chromene-3-carboxamide]",> 300
≥ 70,"CC(C)(C)c1ccc2c(c1)C=C(C(=O)NCc1ccc3c(=O)n(C4CCC(=O)NC4=O)ncc3c1)CO2 (stereo not drawn) [Compound T-17, 6-(tert-Butyl)-N-((2-(2,6-dioxopiperidin-3-yl)-1-oxo-1,2-dihydrophthalazin-6-yl)methyl)-2H-chromene-3-carboxamide]",≤ 30
≥ 70,"O=C1CCC(n2ncc3cc(CNC(=O)C4=Cc5cc(-c6ccccc6)ccc5OC4)ccc3c2=O)C(=O)N1 (stereo not drawn) [Compound T-18, N-((2-(2,6-Dioxopiperidin-3-yl)-1-oxo-1,2-dihydrophthalazin-6-yl)methyl)-6-phenyl-2H-chromene-3-carboxamide]",≤ 30
30 to 70,"O=C1CCC(n2ncc3cc(CNC(=O)C4=Cc5cc(F)cc(F)c5OC4)ccc3c2=O)C(=O)N1 (stereo not drawn) [Compound T-19, N-((2-(2,6-Dioxopiperidin-3-yl)-1-oxo-1,2-dihydrophthalazin-6-yl)methyl)-6,8-difluoro-2H-chromene-3-carboxamide]",30 to 300
≥ 70,"O=C1CCC(n2ncc3cc(CNC(=O)C4COc5ccc(OC(F)(F)F)cc5C4)ccc3c2=O)C(=O)N1 (stereo not drawn) [Compound T-23, N-((2-(2,6-Dioxopiperidin-3-yl)-1-oxo-1,2-dihydrophthalazin-6-yl)methyl)-6-(trifluoromethoxy) chromane-3-carboxamide]",≤ 30
